The record followed here is patent publication EP2724723A1, “Tegaserod for use in the treatment of nerve injuries” (Universitätsklinikum Hamburg-Eppendorf, priority 2012, dated 2014).

The subject of one assay is murine motoneurons. Kind of assay: In vitro neurite outgrowth of motoneurons. The class given is cell-based, C57BL/6J mice. The conditions noted are these: tegaserod, cisapride, GR113808 100 nM; colominic acid 3 µM; PSA mimicking peptide 30 µM; Figure 2B. The protocol: (§1) Primary cultures of cerebellar neurons or Schwann cells were prepared from cerebellum or dorsal root ganglia of 7-day-old C57BL/6J mice as described in Mehanna et al. (2009), Brain, 132 (Pt 6): 1449-62 and Loers et al. (2005), J. Neurochem., 92(6): 1463-76. Motoneurons were prepared from E14 C57BL/6J mice as described in Simova et al. (2006), Ann. Neurol., 60(4): 430-437. In brief, 48-well plates were coated with 0.01% poly-L-lysine (PLL) or poly-L-ornithine (PLO) overnight at 4°C, washed twice with water and air-dried. Directly before use, plates were washed twice with PBS, and Schwann cells, cerebellar neurons (PLL) or motoneurons (PLO) were seeded at a density of 1.25 x 10^4 (Schwann cells and motoneurons) or 2.5 x 10^4 cells (cerebellar neurons) per well in 250 µl of corresponding serum-free culture medium. Soluble organic compounds were added to the culture 1 h after seeding in increasing concentrations. After maintenance for 24 h at 37°C, cells were fixed with 2.5% glutaraldehyde and stained with 1% methylene blue/toluidine blue in 1% borax. Morphological quantification of neurite or process lengths was performed as described in Mehanna et al. (2009), see above. Schwann cell processes and neurites of cerebellar neurons with a length of at least one cell body diameter were counted and total neurite or process length per cell was determined by counting 50 cells in each of two wells per experiment. At least three independent experiments were performed for each culture. Also, the activity of tegaserod with the PSA peptide mimic and the bacterial PSA analogue, colominic acid, on neurite and process extension experiments was compared.

The test system of assay [1] is cerebellar granule neurons (cGNs). Kind of assay: In vitro neurite outgrowth of cerebellar granule neurons. The conditions noted are these: compared to control; Figure 2C, D. The class given is cell-based, C57BL/6J mice. The procedure: as §1
In assay [2] the test system is murine cerebellar granule neurons (cGNs), Schwann cells, and motoneurons. The assay is described as follows: In vitro neurite/process outgrowth, statements covering all cell types. The class given is cell-based, C57BL/6J mice. The protocol: as §1
Assay [3] relates to motoneurons isolated from NCAM^-/- mice. The assay is described as follows: In vitro neurite outgrowth of NCAM-deficient motoneurons. The class given is cell-based. The note with it: tegaserod 100 nM; colominic acid 3 µM; PSA mimicking peptide 30 µM; Figure 2B. The procedure:
as §1, with “After maintenance for 24 h at 37°C, cells were fixed with 2.5% glutaraldehyde and stained with 1% methylene blue/toluidine blue in 1% borax.” left out, “At least three independent experiments were performed for each culture. Also, the activity of tegaserod with the PSA peptide mimic and the bacterial PSA analogue, colominic acid, on neurite and process extension experiments was compared.” left out

Consider `COc1cc(N)c(Cl)cc1C(=O)NC1CCN(CCCOc2ccc(F)cc2)CC1OC` (stereo not drawn) [cisapride], for which, in the assay on murine motoneurons, the “effect on neurite extension of murine motoneurons (in words)” value (“effect … of murine motoneurons (in words)” below) is reported as “no ability to enhance motoneuron neurite extension”. Also, in assay [1], the “effect on neurite outgrowth of cGNs (in words)” value is “not observed”.
Take `NCCc1c[nH]c2ccc(O)cc12` [serotonin]: in the assay with murine motoneurons, the “effect … of murine motoneurons (in words)” value is listed as “no ability to enhance motoneuron neurite extension”. Also, in assay [1], the “effect on neurite outgrowth of cGNs (in words)” value was “not observed”.
Consider `Cn1cc(C(=O)OCC2CCN(CCNS(C)(=O)=O)CC2)c2ccccc21` [GR 113808], for which the “effect … of murine motoneurons (in words)” value with murine motoneurons is listed as “no ability to enhance motoneuron neurite extension”.
In the case of NTHTDPYIYPIDC [PSA mimicking peptide], in assay [2] (neurite and process extension of neurons and Schwann cells), the “concentration of maximal stimulatory effects” value is reported as 30 µM. Further, in assay [2] (neurons and Schwann cells), the “effect of overdosing / higher concentrations (in words)” value was “did not lead to any negative side effects”. Besides, the “effect … of murine motoneurons (in words)” value with murine motoneurons is recorded as “significant stimulatory effect”. For the same compound, in assay [3], the “effect on neurite extension of NCAM^-/- motoneurons (in words)” value is on record as “no enhancement in neurite extension”.
